Laboratory results taken from patent publication US20140220556A1, “Method of Design and Synthesis of a New Drug” (priority 2013, published 2014).

Columns and labels:
HeLa cells = test: Effect of Antican on HeLa cells; format: cell-based
Source text: In establishing the minimum concentration of Antican that could slow the growth of cells, a comparison was made between the number of surviving cells and the concentration of Antican in the solution.

benzidine skin sarcoma = test: Anticancer activity on benzidine skin sarcoma; format: in vivo, Barbados mice
Protocol: Before applying it to the silica gel, 7 mL of a solution of 2% benzidine and 0.9% sodium chloride were added until an opalescent suspension was formed (1 g silica gel for 5 mL NaCl solution). Twenty-five Barbados mice of both sexes with weight of 18-20 g that were kept on a vivarium diet were administered benzidine and phorbol acetate immobilized on silica gel subcutaneously near the neck. After two weeks, 18 animals had developed tumors of different sizes in the form of a small bump on the neck near the silica gel granulomas. Each group of animals was administered the corresponding compound parenterally, at a dose of 100 μg/kg weight, twice a day for two weeks, starting 16 days after administration of the carcinogen.

[1] = test system: Ehrlich's ascites adenocarcinoma; test: Antitumor activity in Ehrlich's ascites adenocarcinoma; format: in vivo, Barbados mice; conditions: experimental animals, n = 10
Protocol: The antitumor activity of the compositions were studied in models of Ehrlich's ascites carcinoma in young Barbados mice of both sexes with weights between 15-17 g (68 individuals), which were kept on a vivarium diet.
45 mice were inoculated from a mouse with adenocarcinoma using an insulin syringe with 0.1 mL ascitic fluid in the region of the liver.
Ten mice were administered Antican (see Table 8).

[2] = FDA statistics, third stage of clinical tests; cited from earlier work

Row | SMILES | Number of Live Cells after Incubation, % (HeLa cells; dose 2 μg/mL) [%] | Number of Live Cells after Incubation, ±1000 (HeLa cells; dose 2 μg/mL) [Millions] | Number of Live Cells after Incubation, % (HeLa cells; dose 4 μg/mL) [%] | Number of Live Cells after Incubation, ±1000 (HeLa cells; dose 4 μg/mL) [Millions] | Number of Live Cells after Incubation, % (HeLa cells; dose 6 μg/mL) [%] | Number of Live Cells after Incubation, ±1000 (HeLa cells; dose 6 μg/mL) [Millions] | Number of Live Cells after Incubation, % (HeLa cells; dose 8 μg/mL) [%] | Number of Live Cells after Incubation, ±1000 (HeLa cells; dose 8 μg/mL) [Millions] | Number of Live Cells after Incubation, % (HeLa cells; dose 10 μg/mL) [%] | Number of Live Cells after Incubation, ±1000 (HeLa cells; dose 10 μg/mL) [Millions] | Number of Live Cells after Incubation, % (HeLa cells; dose 12 μg/mL) [%] | Number of Live Cells after Incubation, ±1000 (HeLa cells; dose 12 μg/mL) [Millions] | Weight of Animal, After Treatment (benzidine skin sarcoma; 100 μg/kg parenterally twice a day for two weeks, n = 7) [g] | mice died (benzidine skin sarcoma; after treatment, n = 7) | Weight of Animal, Before Treatment (benzidine skin sarcoma; before treatment, n = 7) [g] | Animal Survival (benzidine skin sarcoma; benzidine skin sarcoma, n = 10) [days] | Time of Death of Animals after the First Injection, Average Value ([1]; Liposomes +) [days] | Time of Death of Animals after the First Injection, Average Value ([1]; Liposomes −) [days] | average effectiveness [2] [%]
1 | CC(=O)O[C@@]12CO[C@@H]1C[C@H](O)[C@@]1(C)C(=O)[C@H](O)C3=C(C)[C@@H](OC(=O)[C@H](O)[C@@H](NC(=O)OC(C)(C)C)c4ccccc4)C[C@@](O)([C@@H](OC(=O)c4ccccc4)[C@H]21)C3(C)C [Taxotere] | 100 | 150000 | 98 | 150000 | 97 | 145000 | 89 | 135000 | 82 | 130000 | 94 | 153000 | 23 ± 1.1 | 2 | 28 ± 1.2 | 28 ± 1.1 | 15 ± 0.5 | 14 ± 0.12 | –
2 | CN1CC[C@]23c4c5ccc(O)c4O[C@H]2[C@@H](O)C=C[C@H]3[C@H]1C5 [morphine] | – | – | – | – | – | – | – | – | – | – | – | – | – | – | – | – | – | – | 75
